In PubChem BioAssay (NCI):
Values joined by “and” are separate entries in the source; they are usually repeats but may differ in a detail not shown here. Equal values may be shown once.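 Cultured in 96-well plates, cells were exposed to test compound for 48 hours across five concentrations. GI50 = concentration required for 50% inhibition of growth. TGI: total growth inhibition.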

Key:
Test in all cases: inhibition of tumour cell growth, NCI panel, 48 h
M14 melanoma = test system: M14 melanoma
CAKI-1 renal = test system: CAKI-1 renal
OVCAR-8 ovarian = test system: OVCAR-8 ovarian
ACHN renal = test system: ACHN renal
SK-MEL-2 melanoma = test system: SK-MEL-2 melanoma
NCI-H522 lung = test system: NCI-H522 lung
BT-549 breast = test system: BT-549 breast
HL-60(TB) leukemia = test system: HL-60(TB) leukemia
MDA-MB-435 = test system: MDA-MB-435
786-0 renal = test system: 786-0 renal

SMILES	TGI (M14 melanoma)	TGI (CAKI-1 renal)	TGI (OVCAR-8 ovarian)	TGI (ACHN renal)	TGI (SK-MEL-2 melanoma)	TGI (NCI-H522 lung)	TGI (BT-549 breast)	TGI (HL-60(TB) leukemia)	TGI (MDA-MB-435)	TGI (786-0 renal)	GI50 (M14 melanoma)	GI50 (CAKI-1 renal)	GI50 (OVCAR-8 ovarian)	GI50 (ACHN renal)	GI50 (SK-MEL-2 melanoma)	GI50 (NCI-H522 lung)	GI50 (BT-549 breast)	GI50 (HL-60(TB) leukemia)	GI50 (MDA-MB-435)	GI50 (786-0 renal)
O=S(=O)(c1cccc(C(F)(F)F)c1)N1c2ccccc2-n2cccc2C1c1cccnc1 (centres undefined)	> 55.8 µM	> 100 µM	> 100 µM	> 74.1 µM	> 52.2 µM	> 53.6 µM	> 71.8 µM	28.3 µM	> 42.2 µM	> 62.3 µM										
CS(=O)(=O)c1nccc(-c2c(-c3cccc(OCc4ccc(F)cc4)c3)nc3sccn23)n1	> 100 µM	> 100 µM	> 100 µM	> 100 µM	> 100 µM	> 100 µM	> 100 µM	> 29.3 µM	> 100 µM	> 100 µM	25.9 µM	3.41 µM	59.9 µM	50.1 µM	> 100 µM	8.15 µM	8.89 µM	3.43 µM	30.3 µM	16.8 µM
COc1ccccc1-c1cc2c3c(nc4ccccc42)C(=O)c2cccnc2-c3n1	17.3 µM	27.2 µM	28.6 µM	30.1 µM	47.8 µM	5.23 µM	18.1 µM	> 100 µM	33.3 µM	29.7 µM	5.1 µM	13 µM	8.01 µM	13.7 µM	17.5 µM	1.65 µM	13.3 µM	> 100 µM	12.5 µM	15.5 µM
COc1ccc(OC)c(/C=C/[N+](=O)[O-])c1	4.44 µM and 6.86 µM	7.74 µM and 7.64 µM	17.3 µM and 15.2 µM	4.49 µM and 3.28 µM	5.48 µM and 9.88 µM	2.96 µM and 4.78 µM	11.9 µM	4.5 µM and 2.79 µM	7.68 µM	4.09 µM and 3.21 µM			3.31 µM					1.66 µM and 0.651 µM		
COc1ccc(-c2cc3c4c(nc5ccccc5c4c2)CC(c2cc(OC)c(OC)c(OC)c2)O3)cc1 (centres undefined)	28.7 µM	3.06 µM	> 100 µM	3.11 µM	14.9 µM	13.9 µM	31.7 µM	> 100 µM	13.7 µM	3.74 µM	2.96 µM	1.52 µM	2.71 µM	1.58 µM	3.44 µM	2.63 µM	2.92 µM	> 100 µM	2.99 µM	1.92 µM
C=CC1CC12C(=O)C1OC2(C)C2C(=O)c3ccccc3C(=O)C12 (centres undefined)	> 100 µM	58.6 µM	> 85.8 µM	> 100 µM	> 100 µM	> 100 µM	> 100 µM	2.59 µM	> 54.4 µM	> 100 µM	> 100 µM	21.7 µM	> 42.8 µM	57.3 µM	> 86 µM	> 61.7 µM	> 72.9 µM	0.691 µM	> 40.1 µM	> 52.5 µM
COc1ccc(C2C3=C(NC(=O)C2C#N)c2ccc4ccccc4c2OCC3)cc1 (centres undefined)	> 100 µM	70.3 µM	45.3 µM	59.5 µM	> 100 µM	> 100 µM	60.6 µM	> 100 µM	> 100 µM	86.4 µM	90.2 µM	33.8 µM	21.4 µM	21.9 µM	> 100 µM	74.5 µM	20.4 µM	65.8 µM	> 100 µM	30.2 µM
COC1/C=C/O[C@@]2(C)Oc3c(C)c(O)c4c(O)c(cc(O)c4c3C2=O)NC(=O)/C(C)=C\C=C\[C@H](C)C(O)[C@@H](C)[C@@H](O)[C@@H](C)[C@H](OC(C)=O)[C@@H]1C (some centres undefined)	27 µM and 35.7 µM	30.8 µM and 98.6 µM	29.8 µM and 57.4 µM	30.5 µM and 41.9 µM	30 µM and 45.2 µM	11.2 µM and 20.5 µM	37.7 µM and 84.4 µM	27.4 µM and 18 µM	31.6 µM and 40.4 µM	15.9 µM and 29.5 µM	13.8 µM	16.9 µM	14.9 µM	16.9 µM		2.72 µM	29 µM	6.07 µM and 5.19 µM	17.2 µM	4.29 µM
COc1ccc2c(c1)O/C(=C\c1cccc(OCC(=O)Nc3nc4ccccc4s3)c1)C2=O	> 100 µM	> 100 µM	> 100 µM	> 100 µM	33.3 µM	2.74 µM	97.6 µM	> 63 µM	> 100 µM	> 100 µM	36.3 µM	3.04 µM	12.6 µM	12.7 µM	11.5 µM	0.718 µM	26 µM	4.68 µM	14.2 µM	> 66.4 µM
C[C@]12CC[C@H](O)CC1=CC[C@@H]1[C@@H]2CC[C@]2(C)C(=O)/C(=C/c3cccc(OCCCn4ccnc4)c3)C[C@@H]12	33.2 µM	> 100 µM	32.8 µM	38.6 µM	51 µM	34.2 µM		44.7 µM	> 100 µM	47.2 µM	18.5 µM	38.4 µM	17.7 µM	16.7 µM	19.9 µM	16.6 µM		13.8 µM	36.8 µM	23.2 µM
Cn1ncc2cc(-c3cnc(N)c(Cl)c3N3CCC4(CCNC4=O)CC3)ccc21	> 100 µM		> 100 µM		> 100 µM	> 100 µM	> 100 µM	42.6 µM	> 100 µM	> 100 µM	41.4 µM		39.1 µM		39.8 µM	60.7 µM	29.2 µM	16.8 µM	45.4 µM	11.2 µM
N=C(N)/N=C(/C=C/c1ccccc1)CC1OC(=O)c2ccccc21 (centres undefined)	> 100 µM	> 100 µM	> 100 µM	> 100 µM	> 100 µM	> 100 µM		> 100 µM		> 100 µM										
O=C1CCC2(c3ccc(F)cc3)Nc3ccccc3N12 (centres undefined)	> 100 µM	> 100 µM	> 100 µM	> 100 µM	> 100 µM	> 100 µM		> 100 µM		> 100 µM										
O=c1cc2n(c(=O)[nH]1)C1OC(C(O)C1O)[C@@H]2CCO (some centres undefined)	> 100 µM	> 100 µM	> 100 µM	> 100 µM	> 100 µM	> 100 µM		> 100 µM		> 100 µM										
